Reference: PubChem BioAssay (NCI)
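Grown in 96-well plates, cells were treated for 48 hours with each compound at five concentrations. Insufficient inhibition: endpoint recorded as highest concentration tested. GI50 is the concentration that inhibits growth by half. TGI: concentration producing complete growth inhibition.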

What was measured:
Test in all cases: NCI-60 cell line screen, 48 h
U251 CNS = system: U251 CNS
COLO 205 colon = system: COLO 205 colon
SK-MEL-28 melanoma = system: SK-MEL-28 melanoma
IGROV1 ovarian = system: IGROV1 ovarian
HCT-116 colon = system: HCT-116 colon
NCI-H522 lung = system: NCI-H522 lung
T-47D breast = system: T-47D breast
786-0 renal = system: 786-0 renal
HOP-92 NSCLC = system: HOP-92 NSCLC
MCF7 breast = system: MCF7 breast
TK-10 renal = system: TK-10 renal
RPMI-8226 leukemia = system: RPMI-8226 leukemia
SK-MEL-2 melanoma = system: SK-MEL-2 melanoma
SF-295 CNS = system: SF-295 CNS
OVCAR-3 ovarian = system: OVCAR-3 ovarian
OVCAR-8 ovarian = system: OVCAR-8 ovarian
DU-145 prostate = system: DU-145 prostate
SN12C renal = system: SN12C renal
HL-60(TB) leukemia = system: HL-60(TB) leukemia
ACHN renal = system: ACHN renal
M14 melanoma = system: M14 melanoma
SR leukemia = system: SR leukemia
SW-620 colon = system: SW-620 colon
SF-268 CNS = system: SF-268 CNS
MDA-MB-231 breast = system: MDA-MB-231 breast
SK-MEL-5 melanoma = system: SK-MEL-5 melanoma
MOLT-4 leukemia = system: MOLT-4 leukemia
HOP-62 NSCLC = system: HOP-62 NSCLC
MDA-N = system: MDA-N
SNB-75 CNS = system: SNB-75 CNS
LOX IMVI melanoma = system: LOX IMVI melanoma
A549 NSCLC = system: A549 NSCLC
UO-31 renal = system: UO-31 renal
EKVX NSCLC = system: EKVX NSCLC
PC-3 prostate = system: PC-3 prostate
HT29 colon = system: HT29 colon
A498 renal = system: A498 renal
SK-OV-3 ovarian = system: SK-OV-3 ovarian
HS 578T breast = system: HS 578T breast
MDA-MB-435 = system: MDA-MB-435
CAKI-1 renal = system: CAKI-1 renal
OVCAR-4 ovarian = system: OVCAR-4 ovarian
KM12 colon = system: KM12 colon
NCI-H226 lung = system: NCI-H226 lung
RXF 393 renal = system: RXF 393 renal
UACC-257 melanoma = system: UACC-257 melanoma
OVCAR-5 ovarian = system: OVCAR-5 ovarian
CCRF-CEM leukemia = system: CCRF-CEM leukemia
SNB-19 CNS = system: SNB-19 CNS
MALME-3M melanoma = system: MALME-3M melanoma
K-562 leukemia = system: K-562 leukemia
HCT-15 colon = system: HCT-15 colon
HCC-2998 colon = system: HCC-2998 colon
BT-549 breast = system: BT-549 breast
NCI-H460 lung = system: NCI-H460 lung
SF-539 CNS = system: SF-539 CNS
NCI/ADR-RES ovarian = system: NCI/ADR-RES ovarian
NCI-H23 lung = system: NCI-H23 lung
UACC-62 melanoma = system: UACC-62 melanoma

c1ccc(C[N+]23C(CC[C@H]2c2ccccc2)CC[C@H]3c2ccccc2)cc1 (stereo not given in full) showed a TGI (U251 CNS) greater than 100 µM, a TGI (COLO 205 colon) of 31.2 µM and a TGI (SK-MEL-28 melanoma) greater than 100 µM. For the same molecule, the TGI (IGROV1 ovarian) was greater than 100 µM, the TGI (HCT-116 colon) was greater than 100 µM and the TGI (NCI-H522 lung) was greater than 100 µM. For the same molecule, the TGI (T-47D breast) was greater than 100 µM, the TGI (786-0 renal) was greater than 100 µM and the TGI (HOP-92 NSCLC) was 52.3 µM. The TGI (MCF7 breast) was greater than 100 µM, the TGI (TK-10 renal) was greater than 100 µM and the TGI (RPMI-8226 leukemia) was 26.4 µM. It also gave a TGI (SK-MEL-2 melanoma) greater than 100 µM, a TGI (SF-295 CNS) greater than 100 µM and a TGI (OVCAR-3 ovarian) of 90 µM. For the same molecule, the TGI (OVCAR-8 ovarian) was greater than 100 µM, the TGI (DU-145 prostate) was greater than 100 µM and the TGI (SN12C renal) was greater than 100 µM. For the same molecule, the TGI (HL-60(TB) leukemia) was 57.4 µM, the TGI (ACHN renal) was greater than 100 µM and the TGI (M14 melanoma) was 93 µM. For the same molecule, the TGI (SR leukemia) was greater than 100 µM, the TGI (SW-620 colon) was greater than 100 µM and the TGI (SF-268 CNS) was greater than 100 µM. The TGI (MDA-MB-231 breast) was greater than 100 µM, the TGI (SK-MEL-5 melanoma) was 19.1 µM and the TGI (MOLT-4 leukemia) was greater than 100 µM. The TGI (HOP-62 NSCLC) was greater than 100 µM, the TGI (MDA-N) was 98.9 µM and the TGI (SNB-75 CNS) was 75 µM. For the same molecule, the TGI (LOX IMVI melanoma) was greater than 100 µM, the TGI (A549 NSCLC) was greater than 100 µM and the TGI (UO-31 renal) was greater than 100 µM. It also gave a TGI (EKVX NSCLC) greater than 100 µM, a TGI (PC-3 prostate) greater than 100 µM and a TGI (HT29 colon) greater than 100 µM. The TGI (A498 renal) was greater than 100 µM, the TGI (SK-OV-3 ovarian) was greater than 100 µM and the TGI (HS 578T breast) was greater than 100 µM. For the same molecule, the TGI (MDA-MB-435) was 54.8 µM, the TGI (CAKI-1 renal) was greater than 100 µM and the TGI (OVCAR-4 ovarian) was greater than 100 µM. For the same molecule, the TGI (KM12 colon) was 78 µM, the TGI (NCI-H226 lung) was 87.8 µM and the TGI (RXF 393 renal) was 57.2 µM. The TGI (UACC-257 melanoma) was 90.3 µM, the TGI (OVCAR-5 ovarian) was greater than 100 µM and the TGI (CCRF-CEM leukemia) was greater than 100 µM. For the same molecule, the TGI (SNB-19 CNS) was greater than 100 µM, the TGI (MALME-3M melanoma) was greater than 100 µM and the TGI (K-562 leukemia) was greater than 100 µM.

With O=C(Oc1c(Cl)c(Cl)c(Cl)c(Cl)c1Cl)C1CCCN1C(=O)OCc1ccccc1 (stereo not given) the GI50 (U251 CNS) was 3.34 µM, the TGI (U251 CNS) was 12.6 µM and the GI50 (COLO 205 colon) was 2.01 µM. The TGI (COLO 205 colon) was 3.88 µM, the GI50 (SK-MEL-28 melanoma) was 7.45 µM and the TGI (SK-MEL-28 melanoma) was 22.1 µM. For the same molecule, the GI50 (IGROV1 ovarian) was 4 µM, the TGI (IGROV1 ovarian) was 22 µM and the GI50 (HCT-116 colon) was 3.43 µM. The TGI (HCT-116 colon) was 10.7 µM, the GI50 (NCI-H522 lung) was 2.47 µM and the TGI (NCI-H522 lung) was 6.84 µM. For the same molecule, the GI50 (HCT-15 colon) was 3.08 µM, the TGI (HCT-15 colon) was 11.7 µM and the GI50 (T-47D breast) was 2.79 µM. The TGI (T-47D breast) was 11.3 µM, the GI50 (786-0 renal) was 3.94 µM and the TGI (786-0 renal) was 14.2 µM. The GI50 (HOP-92 NSCLC) was 1.99 µM, the TGI (HOP-92 NSCLC) was 6.1 µM and the GI50 (MCF7 breast) was 3.16 µM. It also gave a TGI (MCF7 breast) of 11.9 µM, a GI50 (HCC-2998 colon) of 4.36 µM and a TGI (HCC-2998 colon) of 14.9 µM. It also gave a GI50 (TK-10 renal) of 3.13 µM, a TGI (TK-10 renal) of 8.85 µM and a GI50 (RPMI-8226 leukemia) of 2.45 µM. The TGI (RPMI-8226 leukemia) was 6.83 µM, the GI50 (SK-MEL-2 melanoma) was 2.28 µM and the TGI (SK-MEL-2 melanoma) was 4.49 µM. The GI50 (SF-295 CNS) was 2.75 µM, the TGI (SF-295 CNS) was 8.47 µM and the GI50 (OVCAR-3 ovarian) was 3.27 µM. The TGI (OVCAR-3 ovarian) was 9.84 µM, the GI50 (OVCAR-8 ovarian) was 3.43 µM and the TGI (OVCAR-8 ovarian) was 15.9 µM. It also gave a GI50 (BT-549 breast) of 3.75 µM, a TGI (BT-549 breast) of 13.1 µM and a GI50 (DU-145 prostate) of 4.49 µM. For the same molecule, the TGI (DU-145 prostate) was 20 µM, the GI50 (SN12C renal) was 3.24 µM and the TGI (SN12C renal) was 12.5 µM. It also gave a GI50 (NCI-H460 lung) of 3.29 µM, a TGI (NCI-H460 lung) of 10.6 µM and a GI50 (HL-60(TB) leukemia) of 2.42 µM. It also gave a TGI (HL-60(TB) leukemia) of 6.09 µM, a GI50 (ACHN renal) of 2.62 µM and a TGI (ACHN renal) of 8.09 µM. It also gave a GI50 (M14 melanoma) of 4 µM, a TGI (M14 melanoma) of 16.4 µM and a GI50 (SR leukemia) of 3.82 µM. It also gave a TGI (SR leukemia) of 15.7 µM, a GI50 (SW-620 colon) of 3.44 µM and a TGI (SW-620 colon) of 14.4 µM. For the same molecule, the GI50 (SF-268 CNS) was 4 µM, the TGI (SF-268 CNS) was 15.6 µM and the GI50 (MDA-MB-231 breast) was 2.42 µM. The TGI (MDA-MB-231 breast) was 6.6 µM, the GI50 (SK-MEL-5 melanoma) was 2.26 µM and the TGI (SK-MEL-5 melanoma) was 5.74 µM. The GI50 (MOLT-4 leukemia) was 3.1 µM, the TGI (MOLT-4 leukemia) was 9.07 µM and the GI50 (HOP-62 NSCLC) was 3.45 µM. The TGI (HOP-62 NSCLC) was 14.9 µM, the GI50 (SNB-75 CNS) was 2.66 µM and the TGI (SNB-75 CNS) was 10.2 µM. For the same molecule, the GI50 (LOX IMVI melanoma) was 2.85 µM, the TGI (LOX IMVI melanoma) was 8.6 µM and the GI50 (SF-539 CNS) was 2.63 µM. For the same molecule, the TGI (SF-539 CNS) was 9.56 µM, the GI50 (NCI/ADR-RES ovarian) was 3.15 µM and the TGI (NCI/ADR-RES ovarian) was 11.2 µM. It also gave a GI50 (A549 NSCLC) of 3.97 µM, a TGI (A549 NSCLC) of 18.2 µM and a GI50 (UO-31 renal) of 2.9 µM. It also gave a TGI (UO-31 renal) of 12.3 µM, a GI50 (PC-3 prostate) of 2.95 µM and a TGI (PC-3 prostate) of 11.6 µM. The GI50 (NCI-H23 lung) was 3.17 µM, the TGI (NCI-H23 lung) was 10.1 µM and the GI50 (HT29 colon) was 3.71 µM. It also gave a TGI (HT29 colon) of 12 µM, a GI50 (A498 renal) of 1.99 µM and a TGI (A498 renal) of 5.81 µM. For the same molecule, the GI50 (SK-OV-3 ovarian) was 3.15 µM, the TGI (SK-OV-3 ovarian) was 9.07 µM and the GI50 (HS 578T breast) was 2.92 µM. The TGI (HS 578T breast) was 10.4 µM, the GI50 (MDA-MB-435) was 4.11 µM and the TGI (MDA-MB-435) was 16.6 µM. It also gave a GI50 (CAKI-1 renal) of 2.8 µM, a TGI (CAKI-1 renal) of 8.52 µM and a GI50 (OVCAR-4 ovarian) of 2.66 µM. For the same molecule, the TGI (OVCAR-4 ovarian) was 10.6 µM, the GI50 (KM12 colon) was 3.62 µM and the TGI (KM12 colon) was 13 µM. The GI50 (UACC-62 melanoma) was 3.24 µM, the TGI (UACC-62 melanoma) was 12.6 µM and the GI50 (NCI-H226 lung) was 3.82 µM. For the same molecule, the TGI (NCI-H226 lung) was 21.7 µM, the GI50 (RXF 393 renal) was 3.94 µM and the TGI (RXF 393 renal) was 15.4 µM. The GI50 (UACC-257 melanoma) was 4.29 µM, the TGI (UACC-257 melanoma) was 17.7 µM and the GI50 (OVCAR-5 ovarian) was 4.28 µM. For the same molecule, the TGI (OVCAR-5 ovarian) was 17.1 µM, the GI50 (CCRF-CEM leukemia) was 3.01 µM and the TGI (CCRF-CEM leukemia) was 14.3 µM. For the same molecule, the GI50 (SNB-19 CNS) was 3.23 µM, the TGI (SNB-19 CNS) was 13.2 µM and the GI50 (MALME-3M melanoma) was 3.62 µM. For the same molecule, the TGI (MALME-3M melanoma) was 11.4 µM, the GI50 (K-562 leukemia) was 3.43 µM and the TGI (K-562 leukemia) was 19.3 µM.
